The structures appear in SMILES notation.

The results in this text go back to patent publication US8993632B2, “Inhibitors of the 11-beta-hydroxysteroid dehydrogenase type 1 enzyme” (AbbVie Inc., priority 2005, dated 2015).

Assay [1] relates to HSD-1. Description: Monkey ex vivo HSD1 activity (cortisone to cortisol in harvested tissue). Conditions: for HSD-1 ex vivo activity, Mean % Veh Control: single 10 mg/kg oral dose. Further details: species or system Cynomolgus Monkeys. The procedure: Harvested tissues (approximately 150 mg) were minced into small, 2 mm pieces in the presence of 5× volume of incubation buffer. Cortisone at final concentrations of 0, 3, 10 or 30 μM was added to each well. Cell culture plates with tissues were incubated at 37° C. for three hours. Two-hundred μL of tissue culture supernatant was then removed and spun at 1000 rpm in an Eppindorf tube, and then 100 μL of resulting supernatant was aliquotted into two tubes for LCMS analysis of cortisol.

In assay [2] the test system is CD-1 mice. Nature of the assay: 24-hour inhibitory avoidance task in mice after drug-in-diet dosing. The format is in vivo. Conditions: both doses (10 and 100 mg/kg/day in Western diet), vs vehicle control mice. The procedure: The 24-hour inhibitory avoidance task in mice is a measure of one-trial learning and memory consolidation in response to a discrete aversive event (foot-shock). Mice are first placed in an illuminated compartment of a two-compartment apparatus. Mice will naturally step through into an adjoining dark compartment, which they prefer. When the mice enter the dark they receive a mild foot-shock. To assess memory, mice are tested 24 hours later and the length of time the animal refrains from entering the dark compartment is recorded (higher latencies indicate improved memory for the aversive event).
Male CD-1 mice were obtained from Charles River, Wilmington, Mass. Mice were group-housed 10 per cage. The body weight upon arrival was 20-25 g. Food and water were available ad libitum except during experiments. […]
On the first day of testing (17 days after drug-in-diet was presented) mice were removed from the colony room in their home cage, brought to the testing room, and left undisturbed for 2 hours prior to testing initiation. […] The latency to enter the dark chamber was recorded and was the dependent variable measured for assessing memory retention (latency is defined as entry of the whole mouse; all 4 paws on the grids in the dark side, plus the tail in the chamber for 5 sec; 180 sec is maximum latency). Data were analyzed using Mann Whitney U comparisons. […]

Assay [3] concerns phosphorylated CREB. Description: Phosphorylated CREB immunohistochemistry in brain after food-in-diet dosing. The format is in vivo, mice. Conditions: 18 days food-in-diet (10 and 100 mg/kg/day). As for the experimental part:
In vivo signaling studies were conducted to examine the biochemical pathways that may be mechanistically involved in the cognitive efficacy associated with Compound KK. An important signaling process that serves as a biochemical correlate of synaptic plasticity underlying learning and memory is the phosphorylation of CREB (c-AMP-response element binding protein), a transcription factor critical to long-term memory. To investigate the effects of Compound KK on CREB phosphorylation, CD1 mice treated and tested (data presented in FIG. 1) were given a 24-hour rest after testing before immunohistochemical procedures commenced.
Male CD-1 mice were obtained from Charles River, Wilmington, Mass. Mice were group-housed 10 per cage. The body weight upon arrival was 20-25 g. […]
Compound KK was administered via a drug-in-diet administration (100 mg/kg/day in Western diet) or (10 mg/kg/day in Western diet). […] Immuno-reactivity (IR) was quantified using an image analysis system (Leica, Quantimet 500) that determined number and/or area of peroxidase substrate-positive stained neurons from digitized photomicrographs according to a pixel gray level empirically determined prior to analysis. Overall statistical significance was determined using a one-way ANOVA, with Dunnett's post hoc analyses used to determine significance (p<0.05 was considered significant).

The subject of assay [4] is Fisher rats. Description: Rat EEG REM sleep parameters. It is filed as in vivo. Conditions: 30 mg/kg, 3 times at 24, 26, and 0.1 hours before measurement; 8 h EEG. As for the experimental part:
EEG of Fisher rats (n=8/group) with chronically implanted supracortical EEG-electrodes were analyzed for an 8 h period. Intraindividual drug-induced changes of power spectra were analyzed. For REM sleep the number of REM episodes, latency to first REM, and total REM time was analyzed.

Assay [5] concerns Sprague Dawley rats. Nature of the assay: Short-term social recognition memory in the rat. The format is in vivo. Conditions: 30 mg/kg po at 24, 18 and 1 hour before first juvenile exposure, vs vehicle control rats. As for the experimental part:
Social memory and social cognition are impaired in disorders such as Alzheimer's disease and schizophrenia. One of the more commonly used preclinical models of social recognition memory is short-term social recognition in the rat, a model of short-term memory based on the recognition of a juvenile rat by an adult rat. […] The juvenile rat is then removed and reintroduced 120 min later, and interactive behavior of the adult rat is again monitored. If memory has been lost over the interval between trials 1 and 2, the extent of interaction is equal (expressed as a ratio of investigation time of T1/T2) and the ratio will be close to 1. However, if the adult remembers the juvenile, the investigation ratio declines. To test for non-specific effects, a novel juvenile is introduced at 120 minutes instead of the familiar juvenile. […]
Rats were pre-dosed po at 24, 18 and 1 hour before first juvenile rat exposure with vehicle, or Compound MM (30 mg/kg). […] The time the adult spent exploring (sniffing, grooming, close following) the juvenile during this test session was recorded, and defined as the first investigation duration. […] Data were analyzed using a one-way analysis of variance. If there was a significant effect, subsequent post hoc significance was determined using Dunnett's multiple comparison testing (p<0.05 was regarded as significant).

In assay [6] the test system is serotonin (5-HT) levels. Description: Microdialysis, cortical/hippocampal serotonin levels. To be noted: single administration 30 mg/kg, p.o. It is filed as in vivo, Sprague Dawley rats. The procedure: (§1) Microdialysis studies (resting or challenging conditions) in freely moving, male Sprague Dawley rats (Janvier, 295-315 g, n=5-8/treatment group) were performed using stereotactically instrumented microdialysis probes (CMA/12-14-2): mPFC, hippocampus. Aliquots of the same microdialysate fractions (6 before, and 9-12 after compound administration) were analyzed either for acetylcholine or for serotonin by HPLC and electrochemical detection.
This is a feature shared by marketed anti-depressive drugs and might indicate the potential use for 11β-HSD1 inhibitors as antidepressants/anxiolytic drugs. These findings remain to be confirmed by (i) investigating 11β-HSD1 inhibitors from different chemotype(s) in selected microdialysis studies and/or (ii) in animal models of depression/anxiety.

For assay [7], the system named is ACh release. Description: Microdialysis, cortical/hippocampal acetylcholine levels. The format is in vivo, Sprague Dawley rats. Conditions: single administration 30 mg/kg, p.o. The procedure: as §1

Consider `CC(C)(Oc1ccc(F)cc1Cl)C(=O)NC1C2CC3CC1CC(S(C)(=O)=O)(C3)C2` (centres unmarked) [Compound KK, 2-(2-Chloro-4-fluorophenoxy)-2-methyl-N-[(E)-5-(methylsulfonyl)-2-adamantyl]propanamide], for which the “ex vivo inhibition of HSD1 in monkey brain, fat and liver” value in assay [1] (2.5 and 16 hours following a single oral 10 mg/kg dose) is listed as “potent ex vivo inhibition”. Also, the “HSD-1 ex vivo activity, Mean % Veh Control” value in assay [1] (Cerebral Cortex, 16 hours) is on record as 30%; in assay [1] (Hippocampus, 16 hours), 42%; in assay [1] (Liver, 2.5 hours) it was 38%; in assay [1] (Liver, 16 hours), 9%; in assay [1] (Mesenteric Fat, 2.5 hours), 90%; in assay [1] (Mesenteric Fat, 16 hours) it was 50%. Moreover, in assay [2], the “memory retention (Mean Transfer Latency), FIG. 1” value is “significant improvement in memory retention”. For the same compound, the “phosphorylated CREB, FIG. 2” value in assay [3] is “increase in phosphorylated CREB”.

With `O=C(CN1CCN(c2ccc(C(F)(F)F)cn2)CC1)NC1C2CC3CC1CC(O)(C3)C2` (centres unmarked) [Compound MM, N-[(E)-5-Hydroxy-2-adamantyl]-2-{-4-[5-(trifluoromethyl)pyridin-2-yl]piperazin-1-yl}acetamide], in assay [4], the “increase of latency to first REM” value is given as 62%, the “reduction of REM time” value turned out to be 23%, the “reduction of number of REM sleep episodes” value amounted to 16% and the “reduction of total sleep time” value came out at 10%. Moreover, in assay [5], the “short-term memory retention, FIG. 4” value is “significant improvement in short-term memory retention”. The “serotonin (5-HT) levels in the medial prefrontal cortex and in the hippocampus” value in assay [6] is “long-lasting increase”. The “ACh release under resting conditions” value in assay [7] (acute) was “did not change ACh release”. For the same compound, the “ACh release under challenging conditions (novel cage), cortex and hippocampus” value in assay [7] is on record as “did not induce any further stimulation of ACh release”.
